Source: ChEMBL document CHEMBL1125398, “Antiestrogens. 3. Estrogen receptor affinities and antiproliferative effects in MCF-7 cells of phenolic analogues of trioxifene, [3,4-dihydro-2-(4- methoxyphenyl)-1-naphthalenyl][4-[2-(1-pyrrolidinyl)ethoxy]- phenyl]methanone” (J Med Chem, 1992)

Experiments:
Homo sapiens = organism: Homo sapiens; assay: Inhibition of Calmodulin activation of cyclic nucleotide phosphodiesterase; type: functional; settings: concentration not given here
Estrogen receptor = Estrogen receptor (Homo sapiens, UniProt Q92731+P03372); settings: mcf7
Description: Displacement of [3H]estradiol from Estrogen receptor in MCF-7 cells

SMILES	inhibition (Homo sapiens)	IC50 (Estrogen receptor)
CC/C(=C(\c1ccccc1)c1ccc(OCCN(C)C)cc1)c1ccccc1	44%	–
O=C(C1=C(c2ccc(O)cc2)CCc2cc(O)ccc21)c1ccc(OCCN2CCCCC2)cc1	2%	73 nM
O=C(c1ccc(OCCN2CCCC2)cc1)c1c(-c2ccc(O)cc2)sc2cc(O)ccc12 [LY-117018]	3%	120 nM
O=C(c1ccc(OCCN2CCCCC2)cc1)c1c(-c2ccc(O)cc2)sc2cc(O)ccc12	6%	–

More lines, now with the values ahead:

inhibition (Homo sapiens)	IC50 (Estrogen receptor)	SMILES
22%	740 nM	Oc1ccc2c3c(ccc2c1)-c1ccccc1C3c1ccc(OCCN2CCCCC2)cc1 (configuration not stated)
6%	1650 nM	O=C(C1=C(c2ccccc2)CCc2cc(O)ccc21)c1ccc(OCCN2CCCCC2)cc1
18%	125 nM	Oc1ccc2c(c1)C(c1ccc(OCCN3CCCCC3)cc1)c1c-2ccc2cc(O)ccc12 (configuration not stated)
